Test results from publication PMC6472337, “L amino acid transporter structure and molecular bases for the asymmetry of substrate interaction” (Nature Communications, 2019).
“And” between values parts separate entries of the source, which are not always exact repeats. Identical values can stand only once. Like-named read-outs stand apart in the source and are kept apart here.

How the values were obtained:
BasC Y236F mutant [1] = experiment: [3H]L-alanine transport in BasC Y236F proteoliposomes; format: biochemical, Carnobacterium sp AT7
Method: BasC was overexpressed as a C-terminal fusion with GFP in E. coli BL21 Star (DE3) cells grown in LB media. Single point mutations (Supplementary Table 2) were introduced using the QuikChange site-directed mutagenesis kit (Stratagene, San Diego, CA). All mutations were verified by sequencing. Expression was induced with 0.1 mM isopropyl-ß-D-thiogalactopyranoside at 37 °C for 22 h. Cells were harvested at 5000 × g for 15 min at 4 °C and stored at −80 °C until use. Cell pellets were thawed and resuspended in 20 mM Tris-Base, 150 mM NaCl, pH 7.4. Cells were pelleted again at 5000 × g for 15 min at 4 °C, resuspended in lysis buffer (20 mM Tris-Base, 350 mM NaCl, pH 7.4, 1 mM pefabloc and complete mini protease inhibitor cocktail) (Roche, Basel Switzerland) and then broken using a Cell Disruptor (four cycles at 20,000 psi; Constant Systems Ltd., Daventry, UK). Cell debris was removed by centrifugation (15,000 × g for 1 h at 4 °C), and the supernatant was subjected to ultracentrifugation (200,000 × g for 2 h at 4 °C). The membrane pellet was resuspended in 20 mM Tris-Base, 150 mM NaCl, pH 7.4 and 10% glycerol at a protein concentration of 8–12 mg ml^−1, and then frozen in liquid nitrogen and stored at −80 °C until use.
BasC-GFP protein was reconstituted in E. coli polar lipids (Sigma-Aldrich, Madrid, Spain), as previously described. Lipids were dried under N2 and suspended in reconstitution buffer (20 mM Tris-Base, 150 mM NaCl, pH 7.4). The suspension was sonicated to clarity and purified BasC protein was added to reach the desired protein to lipid ratio of 1:100 (w:w). To destabilize the liposomes, 1.25% ß-D-octylglucoside was added and the mixture was incubated on ice with occasional agitation for 5 min. DDM and ß-D-octylglucoside were removed by dialysis for 40 h at 4 °C against 100 volumes of dialysis buffer. Proteoliposome (PL) suspensions were frozen in liquid N2 and stored at −80 °C until use.
For uptake experiments, the desired intraliposomal amino acid concentration was added to the PL suspension, which was then subjected to three freeze/thaw cycles. The extraliposomal amino acid content was then removed by ultracentrifugation (100,000 × g for 1 h at 4 °C) and PLs were resuspended to one-third of the initial volume with reconstitution buffer. Amino acid uptake assays were initiated after mixing 10 μl of cold PLs with 180 μl of transport buffer (20 mM Tris-Base, 150 mM NaCl, pH 7.4 plus 0.5–1 µCi/180 µl of radiolabeled L-amino acid (Perkin Elmer, Waltham, MA)) supplemented with the unlabeled amino acid to the desired concentration. This mixture was then incubated at room temperature for the indicated periods. […] Filters were then washed twice with 2 ml of stop buffer and dried, and the trapped radioactivity was counted. Transport measured in PLs containing no amino acid was subtracted from each data point to calculate the net exchange. […] BasC protein in PLs was determined by Coomassie blue staining in SDS-PAGE gels compared with known amounts of BasC in DDM micelles, determined by BCA assay (Pierce, Rockford, IL) and loaded in the same gel.

BasC S282A mutant = experiment: [3H]L-alanine transport in BasC S282A proteoliposomes; format: biochemical, Carnobacterium sp AT7; conditions: BasC S282A in PLs, WT = 100, n=1-3 and mean
Method: BasC was overexpressed as a C-terminal fusion with GFP in E. coli BL21 Star (DE3) cells grown in LB media. Single point mutations (Supplementary Table 2) were introduced using the QuikChange site-directed mutagenesis kit (Stratagene, San Diego, CA). All mutations were verified by sequencing. Expression was induced with 0.1 mM isopropyl-ß-D-thiogalactopyranoside at 37 °C for 22 h. Cells were harvested at 5000 × g for 15 min at 4 °C and stored at −80 °C until use. Cell pellets were thawed and resuspended in 20 mM Tris-Base, 150 mM NaCl, pH 7.4. […]
For uptake experiments, the desired intraliposomal amino acid concentration was added to the PL suspension, which was then subjected to three freeze/thaw cycles. […] Filters were then washed twice with 2 ml of stop buffer and dried, and the trapped radioactivity was counted. Transport measured in PLs containing no amino acid was subtracted from each data point to calculate the net exchange. […] BasC protein in PLs was determined by Coomassie blue staining in SDS-PAGE gels compared with known amounts of BasC in DDM micelles, determined by BCA assay (Pierce, Rockford, IL) and loaded in the same gel.

BasC Y236F mutant [2] = experiment: Thermostability-based L-alanine binding assay, Y236F; parameters: species or system Carnobacterium sp AT7; conditions: for Kd Y236F binding curve, normalized signal: n=1-3
Method: GFP-fused BasC proteins purified in DM were incubated for 10 min at 4–60 °C (Y236F and K154A mutants) or 4–70 °C (wild-type). In total, 200 µl of 2 mg ml^−1 protein was used for each temperature point. Protein was then centrifuged at 186,000 × g for 30 min. […] Fractions (200 µl) were collected and measured for GFP fluorescence. The peak heights were normalized to those of samples incubated at 4 °C and were fit to the Hill equation using the GraphPad Prism 4 program (GraphPad Software Inc., San Diego, CA). Melting temperatures (Tm) were determined by fitting the curves to a sigmoidal dose-response equation, as previously described.
BasC-GFP proteins were then incubated at the calculated Tm for 10 min and centrifuged at 186,000 × g for 30 min. […] Binding affinities were determined by fitting the curves to a sigmoidal dose-response equation.

## C[C@H](N)C(=O)O [L-alanine]
BasC Y236F mutant [1]; BasC Y236F in PLs, WT = 100, n=1-3 and mean
  10 µM [3H]L-alanine/4 mM L-alanine exchange normalized to wild-type: 116.03 and 123.34 and 111.98 and 142.02
BasC Y236F mutant [1]; Y236F
  Vmax: 4.58 ± 0.17 pmols L-alanine µg protein^−1 s^−1
  increase of cytoplasmic apparent affinity vs. wild-type BasC: ~ 4 fold
BasC Y236F mutant [1]; Y236F mutant
  saturation of the transporter at 4 mM intraliposomal L-alanine: fully saturated
BasC Y236F mutant [1]; Y236F vs wild-type, extracellular 10 μM [3H]L-alanine against 4 mM intraliposomal L-alanine
  increase in function: about 20%
BasC Y236F mutant [1]; extracellular side, Y236F, read-out: Km (o)
  Km: 50.2 ± 3.44 µM
BasC Y236F mutant [1]; intracellular side, Y236F, read-out: Km (i)
  Km: 560 ± 110 µM
BasC S282A mutant
  10 µM [3H]L-alanine/4 mM L-alanine exchange normalized to wild-type: 124.06 and 127.02 and 133.54
BasC S282A mutant; mean
  10 µM [3H]L-alanine/4 mM L-alanine exchange normalized to wild-type: 128.21
BasC Y236F mutant [2]; Y236F, incubated at Tm, L-alanine 0–200 mM, read-out: KD (apparent, thermostability-based)
  Kd: 42.3 ± 5 mM
BasC Y236F mutant [2]; [L-Alanine] 6.25 mM
  Kd Y236F binding curve, normalized signal: 22.582 and 17.176 and 16.654
BasC Y236F mutant [2]; [L-Alanine] 12.50 mM
  Kd Y236F binding curve, normalized signal: 33.547 and 26.076 and 17.575
BasC Y236F mutant [2]; [L-Alanine] 25 mM
  Kd Y236F binding curve, normalized signal: 44.758 and 42.547 and 31.773
BasC Y236F mutant [2]; [L-Alanine] 50 mM
  Kd Y236F binding curve, normalized signal: 72.230 and 70.914 and 57.702
BasC Y236F mutant [2]; [L-Alanine] 100 mM
  Kd Y236F binding curve, normalized signal: 89.225 and 96.379 and 94.240
BasC Y236F mutant [2]; [L-Alanine] 150 mM
  Kd Y236F binding curve, normalized signal: 94.446 and 95.445 and 86.456
BasC Y236F mutant [2]; [L-Alanine] 200 mM
  Kd Y236F binding curve, normalized signal: 100.000
BasC Y236F mutant [2]; individual experiments n=1, n=2, n=3, read-out: Apparent Kd Y236F
  Kd: 44.1 mM and 36.7 mM and 46.2 mM
BasC Y236F mutant [2]; mean of n=3, read-out: Apparent Kd Y236F, mean
  Kd: 42.3 mM
